In ChEMBL document CHEMBL1201862, “PubChem BioAssay data set” (2004):
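Protocol summary: plate cells (96-well), add compound at 5 concentrations, incubate 48 h, interpolate endpoints linearly. GI50 is the concentration that inhibits growth by half.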 Activity calls are given as the source filed them. No stated cut-off is given here; in the data, active = GI50 up to about 1.1 µM and inactive = higher.

What was measured:
Experiment in all cases: inhibition of tumour cell growth, NCI panel, 48 h
OVCAR-3 = test system: OVCAR-3
SK-MEL-5 = test system: SK-MEL-5
SW-620 = test system: SW-620
SR = test system: SR
ACHN = test system: ACHN
NCI-H23 = test system: NCI-H23
Malme-3M = test system: Malme-3M
OVCAR-5 = test system: OVCAR-5
SNB-75 = test system: SNB-75
HOP-92 = test system: HOP-92
RPMI-8226 = test system: RPMI-8226
UACC-257 = test system: UACC-257
SF-295 = test system: SF-295
M14 = test system: M14
CCRF-CEM = test system: CCRF-CEM
HL-60 = test system: HL-60
NCI-H522 = test system: NCI-H522
MDA-MB-231 = test system: MDA-MB-231
NCI/ADR-RES = test system: NCI/ADR-RES

Row | Compound | GI50 (OVCAR-3) | GI50 (SK-MEL-5) | GI50 (SW-620) | GI50 (SR) | GI50 (ACHN) | GI50 (NCI-H23) | GI50 (Malme-3M) | GI50 (OVCAR-5) | GI50 (SNB-75) | GI50 (HOP-92) | GI50 (RPMI-8226) | GI50 (UACC-257) | GI50 (SF-295) | GI50 (M14) | GI50 (CCRF-CEM) | GI50 (HL-60) | GI50 (NCI-H522) | GI50 (MDA-MB-231) | GI50 (NCI/ADR-RES)
1 | Cc1ccccc1-c1c(N)nc(NC#N)nc1C(=O)Nc1ccccc1 | > 100 µM (inactive) | > 100 µM (inactive) | > 100 µM (inactive) | > 100 µM (inactive) | > 100 µM (inactive) | > 100 µM (inactive) | > 100 µM (inactive) | > 100 µM (inactive) | 76.4 µM (inactive) | 42.9 µM (inactive) | > 100 µM (inactive) | > 100 µM (inactive) | > 100 µM (inactive) | > 100 µM (inactive) | > 100 µM (inactive) | – | – | – | –
2 | CCC(CC)NC1=C(NC(C)=O)C(=O)c2ccccc2C1=O | > 50 µM (inactive) | > 50 µM (inactive) | > 50 µM (inactive) | > 50 µM (inactive) | > 50 µM (inactive) | > 50 µM (inactive) | 45.4 µM (inactive) | – | > 50 µM (inactive) | 0.339 µM (active) | – | > 50 µM (inactive) | > 50 µM (inactive) | > 50 µM (inactive) | > 50 µM (inactive) | > 50 µM (inactive) | > 50 µM (inactive) | – | –
3 | C=CCCC(C)N(C(=O)OC(C)(C)C)S(=O)(=O)c1ccc(C)cc1 (stereo not given) | > 100 µM (inactive) | – | > 100 µM (inactive) | > 100 µM (inactive) | > 100 µM (inactive) | > 100 µM (inactive) | > 100 µM (inactive) | > 100 µM (inactive) | > 100 µM (inactive) | 40.2 µM (inactive) | > 100 µM (inactive) | > 100 µM (inactive) | > 100 µM (inactive) | > 100 µM (inactive) | – | > 100 µM (inactive) | > 100 µM (inactive) | – | –
4 | CCN(CC)CCNc1ccc(C)c2sc3ccc(O)cc3c(=O)c12 | 2.15 µM (inactive) | 0.851 µM (active) | 0.582 µM (active) | 0.0149 µM (active) | 0.201 µM (active) | 1.2 µM (inactive) | 1.15 µM (inactive) | 4.1 µM (inactive) | 1.05 µM (active) | 1.87 µM (inactive) | 1.05 µM (active) | 1.55 µM (inactive) | 0.27 µM (active) | 1.19 µM (inactive) | 0.0991 µM (active) | 0.106 µM (active) | 1.28 µM (inactive) | – | –
5 | CC1OC(=O)C(O)=C1O (stereo not given) | > 100 µM (inactive) | > 100 µM (inactive) | > 100 µM (inactive) | > 100 µM (inactive) | > 100 µM (inactive) | > 100 µM (inactive) | > 100 µM (inactive) | > 100 µM (inactive) | > 100 µM (inactive) | > 100 µM (inactive) | > 100 µM (inactive) | > 100 µM (inactive) | > 100 µM (inactive) | > 100 µM (inactive) | > 100 µM (inactive) | – | > 100 µM (inactive) | – | –
6 | CCOC(=O)/C(=C/c1ccc(N(C)C)cc1)N(CC)CC | 24.5 µM (inactive) | > 10 µM (inactive) | 44 µM (inactive) | 48.6 µM (inactive) | 76.2 µM (inactive) | 49.4 µM (inactive) | > 100 µM (inactive) | > 100 µM (inactive) | – | > 100 µM (inactive) | 26.1 µM (inactive) | 35.8 µM (inactive) | > 100 µM (inactive) | > 100 µM (inactive) | 27 µM (inactive) | 27.2 µM (inactive) | 34.3 µM (inactive) | – | –
7 | CC(ON1[C@](C)(c2ccccc2)CC[C@@]1(C)c1ccccc1)c1ccccc1 (stereo not given in full) | 38.4 µM (inactive) | 30 µM (inactive) | 37.9 µM (inactive) | – | – | 40 µM (inactive) | 32.5 µM (inactive) | 41.1 µM (inactive) | 25.9 µM (inactive) | 21.4 µM (inactive) | 22.4 µM (inactive) | 28.3 µM (inactive) | 26.3 µM (inactive) | 24.2 µM (inactive) | 22.7 µM (inactive) | 23.6 µM (inactive) | 15.3 µM (inactive) | 43.3 µM (inactive) | 48.2 µM (inactive)
8 | Cc1cccc(NC(=O)C(=O)C2C(=O)NC(=O)NC2=O)c1C | > 100 µM (inactive) | > 100 µM (inactive) | > 100 µM (inactive) | > 100 µM (inactive) | > 100 µM (inactive) | > 100 µM (inactive) | > 100 µM (inactive) | > 100 µM (inactive) | > 100 µM (inactive) | > 100 µM (inactive) | > 100 µM (inactive) | > 100 µM (inactive) | > 100 µM (inactive) | > 100 µM (inactive) | > 100 µM (inactive) | > 100 µM (inactive) | > 100 µM (inactive) | – | –
9 | COC1/C=C(C)/C=C/C(C)/C=C/C(=O)OC(/C(C)=C/C=C(\C)CNC(=O)[C@H](CO)NC=O)C(C)/C=C/C=C/C(OC)CC/C=C(C)/C=C/C1 (stereo not given in full) | 0.039 µM (active) | 0.0231 µM (active) | 0.0469 µM (active) | – | 0.0474 µM (active) | 0.0497 µM (active) | 0.0863 µM (active) | 0.0328 µM (active) | > 1 µM (active) | 0.0447 µM (active) | 0.0215 µM (active) | 0.0264 µM (active) | 0.0229 µM (active) | 0.0183 µM (active) | 0.0474 µM (active) | 0.0225 µM (active) | – | 0.012 µM (active) | 0.407 µM (active)
